According to patent publication US8357379B2, “High concentration baclofen preparations” (Board of Regents, The University of Texas System, priority 2004, dated 2013):
In brackets after ≈: the same amount, converted by molar mass.

Legend:
[1] = Practical solubility by direct dissolution in normal saline, HPLC after 0.22-micron filtration; format: physicochemical; conditions: about 23° C.
Protocol: The inventors attempted to prepare aqueous baclofen solutions at concentrations of 3 mg/mL, 4 mg/mL, and 5 mg/mL by direct dissolution in 0.9% sodium chloride injection, USP (normal saline). The normal saline was commercially procured by the inventors and was at ambient room temperature (about 23° C.) for use in the testing. Appropriate amounts of authentic baclofen powder were weighed and added to the normal saline and shaken to aid in dissolution. […] Both the 4-mg/mL and especially the 5-mg/mL concentration retained large amounts of undissolved powder. […] The solutions were visibly unacceptable for use as an injection. […] The inventors believe that this the concentration represents the “practical solubility” of baclofen.
As used herein, the “practical solubility” is the concentration of baclofen that can be dissolved using simple practical dissolution steps such as adding the powder to an aqueous solvent and then shaking or stirring the solvent by hand or with a mechanical device. When attempting to prepare solutions having concentrations higher than the practical solubility concentration, it is common to observe residual undissolved matter, precipitation of microparticulates, or both.

[2] = Physical stability evaluation (visual inspection, Tyndall beam, turbidity, particle counting) of stored baclofen solutions; format: physicochemical; conditions: for time remained clear and free of unacceptable microparticulates: room temperature or 37° C.
Protocol: Methods of Sample Preparation. All manipulations are conducted in a Class 100 environment in a biological safety cabinet. Each test solution is prepared as a pooled sample and then subdivided by (1) drawing 20 mL of the solution into 30-mL Becton-Dickinson syringes having Braun Luer lock “Red Cap” syringe tip seals and (2) sealing the Luer tip with a Red Cap Luer tip seal and (3) filling 20 mL of the test solution into 30-mL sterile empty glass vials. Separate sample syringes and sample vials are prepared for each drug concentration at each storage temperature. Separate syringes and vials are prepared for analysis of the drug content. Further syringes and vials are used to evaluate the physical stability of the solutions.
Methods of Sampling and Analysis. Each pooled solution is analyzed and evaluated immediately after preparation. This serves as the initial time point evaluation for the test solution. The solution is then packaged into the syringes and vials as noted under Sample Preparation.
The test solutions in vials and syringes are thoroughly mixed prior to sampling. A 1-mL sample of each test solution from three test syringes and three test vials is collected and chemically analyzed. The sample aliquots are removed from each container after 1, 3, 7, 14, 21, 30 and 60 days of storage at 4° C., 23° C., and 37° C. Triplicate HPLC determinations are performed at each time point if needed to determine the maximum stability of baclofen. The contents of the remaining containers are visually inspected at each assay time point and 6-mL samples are collected and fully evaluated for physical stability as indicated under Physical Stability Evaluation above after 1, 3, 7, 14, 21, 30 and 60 days.
After complete dissolution of the samples had occurred, the solutions were allowed to cool to room temperature and several separate aliquots of each sample were filtered through 0.22-micron sterilizing filters into sterile empty vials. Vials containing samples of each solution were stored under one of three test conditions: vials were stored at room temperature or under refrigeration (to simulate normal storage conditions), or at 37° C. (to simulate “in use” conditions in an implanted pump).
Physical Stability Evaluation. The samples are also evaluated for changes in turbidity and particulate formation. In addition to visual inspection in normal diffuse fluorescent room light and using a high-intensity monodirectional light source (Tyndall beam) against a dark background, turbidity is measured using a Hach Company model 2100AN color-correcting turbidimeter, and particle sizing/counting is performed using a light-obscuration particle sizer and counter (HIAC-Royco Model 9703 particle sizer/counter).

[3] = cited from earlier work
[4] = 20° C.; cited from earlier work
[5] = intrathecal injection at effective CSF concentrations vs oral administration; cited from earlier work
[6] = Physical stability evaluation (visual inspection, Tyndall beam, turbidity, particle counting) of stored baclofen solutions; format: physicochemical; conditions: for Physical Stability (yes/no) / visual inspection at approximately 16 months: heat and sonication; for physical stability at twelve months: 12 months

Structure (SMILES): NCC(CC(=O)O)c1ccc(Cl)cc1 (centres unmarked) [Baclofen, 4-amino-3-(p-chlorophenyl) butyric acid]
- solubility at 1 week ([1]; 0.9% sodium chloride injection, USP (normal saline), saline or isotonic, thermodynamic from solid, normal saline, putative 4 mg/mL and 5 mg/mL samples, shaking one week, filtered 0.22-micron, HPLC, read-out: amount of baclofen actually dissolved (practical solubility)): 3300 to 3500 µg/mL (≈ 15.4 to 16.4 mM)
- complete dissolution by direct dissolution ([1]; 4-mg/mL and 5-mg/mL in normal saline, vigorous shaking 60 minutes, then automated shaking for one week): failed to result in complete dissolution
- time stayed in solution, clear and free of visible particulates and unacceptable microparticulates ([2]; 4 mg/mL, Examples 1 and 2, 37° C. (maximum duration tested)): at least one
- time remained clear and free of unacceptable microparticulates ([2]; 4 mg/mL, prepared by pH adjustment (Examples 3 and 4)): at least 60 days
- time remained clear and free of unacceptable microparticulates ([2]; 5 mg/mL, all four methods (Examples 1-4)): at least 60 days
- time after which a precipitate developed ([2]; 6 mg/mL, refrigeration): 7 days
- time remained in solution clear and free of unacceptable microparticulates ([2]; 8 mg/mL, acidification and back titration to pH 5 (Example 3), room temperature): at least 30 days
- time remains in solution clear and free of unacceptable microparticulates ([2]; 8 mg/mL, alkalinization and back titration (Example 4), room temperature): at least 30 days
- concentration obtained by dissolving in acid ([3]; aqueous 0.1N HCl (Ahuja 1985)): greater than 20 mg/ml
- concentration obtained by dissolving in base ([3]; aqueous 0.1N NaOH (Ahuja 1985)): greater than 20 mg/ml
- solubility in chloroform ([3]; chloroform): insoluble
- solubility in methanol ([3]; methanol): very slightly soluble
- upper limit on room temperature aqueous solubility ([3]; room temperature, equilibrium reached over weeks or months (Ahuja, 1985)): 4300 µg/mL
- solubility in water ([3]; water): slightly soluble
- pKa1 [4]: 3.8±0.1
- pKa2 [4]: 9.62±0.1
- plasma concentrations with intrathecal injection relative to oral administration [5]: 100 times less
- Physical Stability (yes/no) ([6]; 3 mg/ml, room temperature, test period 24 months): yes
- Physical Stability (yes/no) ([6]; 3.5 mg/ml, room temperature, test period 24 months): yes
- time remained in solution ([6]; 4 mg/mL, Examples 1 and 2, refrigerated at 4° C. (maximum duration tested)): at least 60 days
- time remained in solution, clear and free of visible particulates and microparticulate precipitation ([6]; 4 mg/mL, Examples 1 and 2, room temperature of 23° C.): at least one
- time stayed in solution, clear and free of visible particulates and unacceptable microparticulates ([6]; 4 mg/mL, heat and sonication (Example 1) or heat and high speed stirring (Example 2), room temperature): over 12 months
- Physical Stability (yes/no) ([6]; 4 mg/ml, room temperature, test period 12 months): yes
- Physical Stability (yes/no) ([6]; 4 mg/ml, room temperature, test period 24 months): yes
- time after which a precipitate developed ([6]; 5 mg/mL, refrigeration): 14 days
- Physical Stability (yes/no) ([6]; 5 mg/ml, room temperature, test period 12 months): yes
- time remained clear and free of unacceptable microparticulates ([6]; 6 mg/mL, all four methods (Examples 1-4), room temperature or 37° C.): at least 60 days
- physical stability at twelve months ([6]; 6.0 mg/mL, heat and sonication (Example 1), room temperature): no visible particulates to the unaided eye, but did contain trace amounts of solid material
- visual inspection at approximately 16 months ([6]; 6.0 mg/mL, room temperature): no change in its condition
- Physical Stability (yes/no) ([6]; 6 mg/ml, room temperature, test period 12 months, no visible particulates to the unaided eye, trace microparticulates in a few vials): yes^b
- time remained in solution ([6]; 8.0 mg/mL, heat and sonication (Example 1), room temperature): at least 30 days
- time remained clear and free of unacceptable microparticulates before trace particulate precipitation ([6]; 8 mg/mL, heating and agitation (Examples 1 and 2), room temperature or 37° C.): 14 days
- physical stability at 24 months ([6]; 3.0, 3.5 and 4.0 mg/mL, heat and sonication (Example 1), room temperature, 24 months, four methods of Example 11): physically stable by all four methods
- physical stability at twelve months ([6]; 4.0 and 5.0 mg/mL, heat and sonication (Example 1), room temperature): remained clear and no particulates were detected
- visual inspection at approximately 16 months ([6]; 4.0 and 5.0 mg/mL, room temperature): no change in the solutions
